Experimental data published in patent US9657013B2, “Inhibitors of hepatitis B virus covalently closed circular DNA formation and their method of use” (priority 2012, dated 2017).

How the values were obtained:
[1] = test system: HBV e antigen (HBeAg) production in HepDE19 cells; experiment: HBeAg ELISA in HepDE19 cells (surrogate marker for cccDNA); type: cell-based, hepatitis B virus; conditions: nine days incubation
Method: High throughput compound screen and assay: HepDE19 cells were cultured under tetracycline containing medium until confluent, the cells were then trypsinized and seeded in 96-well plates at a density of 5.0×10^4 cells/well with tetracycline-free medium to induce HBV replication. Immediately following cell seeding, compounds were added to screening plates by means of automated liquid handling (Beckman Coulter, Brea, Calif.), at a final concentration of 10 μM in 1.0% DMSO. Each screening plate consisted of 80 compound test wells, 4 wells of cells with 1.0% DMSO only, 4 wells with DMSO and without cells, and 4 wells of cells with DMSO and 50 μM lamivudine (3TC) as a reference inhibitor. […] Intracellular HBeAg (precore) accumulation was assayed by indirect ELISA assay as follows. Media was removed from wells and the cell monolayer was fixed with 100% ice cold methanol for 20 min, followed with two washes (150 μl each) with PBS containing 0.5% Tween-20 (PBST) with 1 min incubation at room temperature. […] Signal was allowed to develop for 20 minutes and optical absorbance was determined at a wavelength of 650 nm with a reference reading at 490 nm. […]

HBV RNA and core DNA = experiment: viral RNA and core DNA in HepDES19 cells (Northern/Southern blot); type: cell-based, hepatitis B virus; conditions: for reduction of viral RNA and DNA replicative intermediates: day 12, high concentrations; for steady state levels of HBV RNA and core DNA: early time point (day 4) of treatment
Excerpt: Viral nucleic acid analysis: Total cellular RNA was extracted with TRIzol reagent (Invitrogen, Grand Island, N.Y.) by following manufacturer's directions. Ten microgram of total cellular RNA was resolved in 1.5% agarose gel containing 2.2 M formaldehyde and transferred onto Hybond-XL membrane (GE Healthcare, Piscataway, N.J.) in 20×SSC buffer. Intracellular hepadnaviral core DNA and cccDNA (Hirt DNA) were extracted as described previously (Guo, H., D. Jiang, T. Zhou, A. Cuconati, T. M. Block, and J. T. Guo. 2007. Guo, H., D. Jiang, T. Zhou, A. Cuconati, T. M. Block, and J. T. Guo. 2007. Guo, H., R. Mao, T. M. Block, and J. T. Guo. 2010. Guo, H., W. S. Mason, C. E. Aldrich, J. R. Saputelli, D. S. Miller, A. R. Jilbert, and J. E. Newbold. 2005). Half of the DNA samples recovered from one well of a 6-well-plate were resolved by electrophoresis into a 1.2% agarose gel and blotted onto Hybond-XL membrane. Membranes were probed with either an α-^32P-UTP (800 Ci/mmol, Perkin Elmer) labeled hepadnaviral minus (detecting DNA) or plus strand (detecting RNA) specific full-length riboprobe and exposed to a phosphorimager screen (Fuji Film, Tokyo, Japan). Hybridization signals were visualized by Typhoon FLA-7000 (GE Healthcare) and quantified with ImageQuantTL software (GE Healthcare).
Identification of compounds that inhibits cccDNA accumulation in HepDES19 cells: Compounds were tested on HepDES19 cells, which have a higher level of cccDNA production than HepDE19 cells (Guo, H., D. Jiang, T. Zhou, A. Cuconati, T. M. Block, and J. T. Guo. 2007). Briefly, after withdrawal of tetracycline, HepDES19 cells were left untreated, or were treated with compound at serial concentrations; tetracycline-free media was changed every other day with fresh compound supplementation. The concentration of DMSO in all experimental groups was normalized at 0.1%. […] Shorter exposure of the Hirt DNA blot was used for the quantitative determination of DP-rcDNA signals. […] The reduction between DP-rcDNA and cccDNA was proportional compared with untreated control. […] Liu, C. P. Hu, and C. Chang. 2005. Guo, H., T. Zhou, D. Jiang, A. Cuconati, G. H. Xiao, T. M. Block, and J. T. Guo. 2007. Zhou, T., H. Guo, J. T. Guo, A. Cuconati, A. Mehta, and T. M. Block. 2006).

Compound: Cc1nc2cc(NC(=O)c3ccc(S(=O)(=O)N(C)Cc4ccccc4)cc3)ccc2s1 [CCC-0346, 4-(Benzyl-methyl-sulfamoyl)-N-(2-methyl-benzothiazol-5-yl)-benzamide]
- HBeAg production [1]: inhibitor
- reduction of viral RNA and DNA replicative intermediates (HBV RNA and core DNA): slight reduction
- steady state levels of HBV RNA and core DNA (HBV RNA and core DNA): did not reduce

Compound: O=C(CN(c1cc(C(F)(F)F)ccc1Cl)S(=O)(=O)c1ccccc1)NCc1ccncc1 [CCC-0975, 2-[Benzenesulfonyl-(2-chloro-5-trifluoromethyl-phenyl)-amino]-N-pyridin-4-ylmethyl-acetamide]
- HBeAg production [1]: inhibitor
- reduction of viral RNA and DNA replicative intermediates (HBV RNA and core DNA): slight reduction
- steady state levels of HBV RNA and core DNA (HBV RNA and core DNA): did not reduce
